Measurements reported in article PMC10892120, “Design, Synthesis and Biological Assessment of N′-(2-Oxoindolin-3-ylidene)-6-methylimidazo[2,1-b]thiazole-5-carbohydrazides as Potential Anti-Proliferative Agents toward MCF-7 Breast Cancer” (Pharmaceuticals, 2024).

Legend:
[1] = system: MCF-10A; assay: MTT assay, cytotoxicity toward MCF-10A; format: cell-based; details: Homo sapiens
Method: The developed compounds were evaluated in vitro using the MTT cell viability assay following the published techniques (Supplementary Data, page 42). […]
The 96 well tissue culture plate was seeded with 1 X 10^5 cells / ml (100 ul / well) and cultured at 37 degrees Celsius for 24 hours to form a full monolayer sheet. After forming a confluent sheet of cells, growth medium was decanted from 96 well micro titer plates, the cell monolayer was washed twice with wash media, and two-fold dilutions of the tested sample were prepared in RPMI medium with 2% serum (maintenance medium). In each well, 0.1 ml of each dilution was examined, with three wells serving as controls and receiving only maintenance media.
The plate was incubated at 37 degrees Celsius and then analyzed. Cells were examined for any physical evidence of toxicity, such as partial or total monolayer loss, rounding, shrinkage, or cell granulation. MTT solution (5mg/ml in PBS) was prepared (BIO BASIC CANADA INC), and 20ul MTT solution was added to each well. Shake the MTT into the medium for 5 minutes at 150rpm on a shaking table. Incubate for 4 hours (37°C, 5% CO2) to allow the MTT to be digested. Remove the media. (If required, dry plate on paper towels to remove residue. In 200ul DMSO, resuspend formazan (MTT metabolic product). Shake at 150rpm for 5 minutes to properly mix the formazan into the solvent. At 560nm, measure optical density and subtract background at 620nm. The optical density should be proportional to the number of cells. MCF-7 and MCF-10A cell lines were provided with 10% fetal bovine serum (FBS, Sigma-Aldrich, MO, USA). Data are presented as the mean of the IC50 values ± SD from three different experiments. […]

[2] = system: Cytochrome C; assay: RT-PCR gene expression in treated MCF-7 cells: cytochrome C; format: cell-based; details: treated MCF-7 cells vs untreated control MCF-7 (=1)
Method: (§1) The gene expression levels of apoptosis genes in MCF-7 cells were measured using RT-PCR to validate the apoptosis-inducing behaviors of the potent lead compound 6i in MCF-7 cells.
(§2) The gene expression levels of apoptosis genes were evaluated in MCF-7 cells using the following approaches in the Supplementary Data, page 43.
(§3) Inhibitor solution of each well labeled as “Test Inhibitor”. For the “Positive Control" and “Blank”, add 5 μl of the same solution without inhibitor (Inhibitor buffer). Prepare 3 ml of 1x Kinase Buffer 1 by mixing 600 μl of 5x Kinase Buffer 1 with 2400 μl water. 3 ml of 1x Kinase Buffer 1 is sufficient for 100 reactions. To the wells designated as "Blank", add 20 μl of 1x Kinase Buffer 1.
(§4) Thaw VEGFR2 enzyme on ice. Upon first thaw, briefly spin tube containing enzyme to recover full content of the tube. Calculate the amount of VEGFR2 required for the assay and dilute enzyme to 1 ng/μl with 1x Kinase Buffer 1. Store remaining undiluted enzyme in aliquots at -80°C. Note:
(§5) VEGFR2 enzyme is sensitive to freeze/thaw cycles. Avoid multiple freeze/thaw cycles. […]
(§6) use thawed aliquots or diluted enzyme. […]
(§7) thoroughly, and then centrifuge at 4°C to collect contents to the bottom of the tube. […] Preparation of a reaction cocktail is crucial in quantitative PCR applications to reduce pipetting errors and maximize assay precision and accuracy. […]

[3] = system: Bax; assay: RT-PCR gene expression in treated MCF-7 cells: Bax; format: cell-based; details: treated MCF-7 cells vs untreated control MCF-7 (=1)
Method: as §1, §2, §3, §4, §5, §6, §7

[4] = molecular target: VEGFR-2 (Homo sapiens, UniProt P35968); assay: In vitro VEGFR-2 kinase inhibition assay; format: biochemical; details: mean ± SD of three experiments
VEGFR-2, sequence (P35968 20-1356): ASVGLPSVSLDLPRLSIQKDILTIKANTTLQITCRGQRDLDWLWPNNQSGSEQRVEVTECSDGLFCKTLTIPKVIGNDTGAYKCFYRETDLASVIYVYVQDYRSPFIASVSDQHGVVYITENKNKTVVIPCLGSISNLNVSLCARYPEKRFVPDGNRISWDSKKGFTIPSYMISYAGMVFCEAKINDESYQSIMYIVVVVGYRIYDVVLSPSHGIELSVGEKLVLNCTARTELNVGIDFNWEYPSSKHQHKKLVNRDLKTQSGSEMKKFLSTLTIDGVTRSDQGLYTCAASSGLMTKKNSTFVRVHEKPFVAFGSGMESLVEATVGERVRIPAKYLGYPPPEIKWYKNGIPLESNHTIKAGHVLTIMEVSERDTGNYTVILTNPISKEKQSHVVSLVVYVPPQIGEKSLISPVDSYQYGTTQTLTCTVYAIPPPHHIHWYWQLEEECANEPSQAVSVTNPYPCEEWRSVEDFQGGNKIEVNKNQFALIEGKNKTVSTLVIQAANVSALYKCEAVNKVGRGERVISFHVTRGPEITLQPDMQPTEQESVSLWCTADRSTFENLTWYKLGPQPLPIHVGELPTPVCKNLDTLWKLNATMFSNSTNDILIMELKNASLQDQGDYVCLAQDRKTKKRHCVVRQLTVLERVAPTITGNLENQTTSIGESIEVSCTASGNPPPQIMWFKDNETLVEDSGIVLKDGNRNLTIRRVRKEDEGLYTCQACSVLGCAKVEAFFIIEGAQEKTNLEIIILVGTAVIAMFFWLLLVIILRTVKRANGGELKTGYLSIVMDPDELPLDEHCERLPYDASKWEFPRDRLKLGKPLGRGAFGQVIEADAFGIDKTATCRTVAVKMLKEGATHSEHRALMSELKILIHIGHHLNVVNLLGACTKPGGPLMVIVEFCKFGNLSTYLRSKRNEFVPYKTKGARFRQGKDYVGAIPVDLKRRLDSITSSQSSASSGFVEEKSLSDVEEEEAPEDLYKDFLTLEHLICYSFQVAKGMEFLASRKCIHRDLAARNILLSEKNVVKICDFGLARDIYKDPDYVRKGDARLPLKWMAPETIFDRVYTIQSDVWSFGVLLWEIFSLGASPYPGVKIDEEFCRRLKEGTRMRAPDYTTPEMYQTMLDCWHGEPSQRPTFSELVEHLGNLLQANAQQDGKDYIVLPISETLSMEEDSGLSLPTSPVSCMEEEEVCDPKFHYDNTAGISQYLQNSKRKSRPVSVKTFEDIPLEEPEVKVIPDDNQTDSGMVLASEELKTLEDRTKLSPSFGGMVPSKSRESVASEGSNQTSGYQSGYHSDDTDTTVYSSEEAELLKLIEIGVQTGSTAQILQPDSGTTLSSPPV

CCCCN1C(=O)C(=NNC(=O)c2c(C)nc3sccn23)c2ccccc21 [Compound 6i, N′-(1-Butyl-2-oxoindolin-3-ylidene)-6-methylimidazo[2,1-b]thiazole-5-carbohydrazide]
IC50 [1]: 54.6 ± 1.29 µM
RT-PCR Fold Change Cytochrome C [2]: 2.420 fold
RT-PCR Fold Change Bax [3]: 4.337 fold
IC50 [4]: 0.33 ± 0.01 µM
